SMILES strings stand for the structures. Values after ≈ are worked out from the molar mass of the structure shown. Bounds are passed on as bounds.

In assay [1] the test system is Leishmania amazonensis. Description: Antileishmanial activity against Leishmania amazonensis LV/79 (MPRO/BR/72/M 1841) amastigotes infected in Balb/c mouse macrophages after 48 hrs by Giemsa staining based light microscopic method. The following applies: read-out: ED50 (the source's name). The assay is classed as functional.
For another assay, the system named is Leishmania major. Description: Antileishmanial activity against Leishmania major amastigotes infected in human peripheral blood monocyte-derived macrophages. The assay is classed as functional, organism-based.
The test system of the next assay is Leishmania panamensis. Description: Antileishmanial activity against GFP fused Leishmania panamensis MHOM/CO/87/UA140 amastigotes infected in human […] cells after 72 hrs by flow cytometry. It counts as functional, organism-based. The following applies: MHOM/CO/87/UA140, 72 h. On the technique in general: Flow cytometry measures light scatter and fluorescence of single cells or particles in a stream.

Assay [2] has as its system Leishmania amazonensis. The assay is described as follows: Antileishmanial activity against Leishmania amazonensis MHOM/BR/76/LTB-012 axenic amastigotes after 72 hrs by MTT dye based assay. To be noted: MHOM/BR/76/LTB-012, 72 h. The assay is classed as functional, organism-based. (Tetrazolium assays rely on reduction of a dye to a coloured formazan, in cell work by metabolically active cells.)

Assay [3] deals with Leishmania donovani. The assay is described as follows: Antileishmanial activity against Leishmania donovani MHOM/SD/00/1SD2D […] amastigotes infected in human peripheral blood monocyte-derived macrophages after 48 hrs by [3H]-thymidine incorporation assay. The assay is classed as functional, organism-based. On the technique in general: Dividing cells build labelled thymidine or BrdU into new DNA.

Assay [4] concerns Leishmania donovani. The assay is described as follows: Antileishmanial activity against Leishmania donovani L82 amastigotes infected in CD1 mouse peritoneal macrophages after 5 days by Giemsa staining based microscopic method. The assay is classed as functional. The following applies: L82, 120 h, read-out: ED50 (the source's name).
The test system of assay [5] is Leishmania amazonensis. Description: Antileishmanial activity against Leishmania amazonensis MHOM/BR/75/M-2904 strain Lb2904 amastigotes infected in mouse J774A1 cells after 48 hrs by Giemsa staining based microscopic method. It counts as functional, organism-based. To be noted: MHOM/BR/75/M-2904 Lb290, J774.A1, 48 h.
Assay [6] relates to Leishmania donovani. Description: Antileishmanial activity against Leishmania donovani amastigotes. It counts as functional, organism-based.
Assay [7] relates to Leishmania amazonensis. The assay is described as follows: Antileishmanial activity against Leishmania amazonensis MHOM/BR/76/LTB-012 axenic amastigotes. It counts as functional, organism-based.
In assay [8] the test system is Leishmania donovani. Description: Antileishmanial activity against DsRed-positive Leishmania donovani Dd8 amastigotes infected in mouse J774A1 cells after 48 hrs by flow cytometry. The assay is classed as functional, organism-based. To be noted: Dd8, J774.A1, 48 h.

`COc1cc(O)c(C(=O)/C=C/c2ccccc2)c(O)c1`: the EC50 in the assay on Leishmania amazonensis [1] was 24 µg/mL (≈ 88.8 µM).
`C=CC(C)(C)c1cc(/C=C/C(=O)c2ccc(O)cc2)c(OC)cc1O` [LICOAGROCHACONE A] yielded an IC50 in the assay with Leishmania major of 0.5 µg/mL (≈ 1.48 µM).
For the compound `COc1ccc(/C=C/C(=O)c2ccc(OCCCCCOc3cc(Cl)ccc3Oc3ccc(Cl)cc3Cl)cc2)cc1OC`, in the assay with Leishmania panamensis, 13.5 µg/mL (≈ 21 µM) corresponded to half-maximal inhibition (IC50).
Compound `COc1cc(O)cc(O)c1C(=O)/C=C/c1ccccc1` [CARDAMOMIN] returned a half-inhibitory concentration (IC50) with Leishmania amazonensis [2] of 8000 nM.
As for `C=CCOc1ccc(C(=O)/C=C/c2cccc(OC)c2OC)cc1`, in the assay with Leishmania donovani [3], half-maximal inhibition (IC50) was put at 650 nM.
Compound `COc1ccc(/C=C/C(=O)c2ccc(OCCCCOc3cccc4cccnc34)cc2)cc1OC` showed an IC50 in the assay on Leishmania panamensis of 6.24 µg/mL (≈ 12.9 µM).
For `COc1cc(OC)c(C(=O)/C=C/c2ccccc2)c(O)c1OC`, inhibition in the assay on Leishmania amazonensis [2] was half-maximal at 800 nM (IC50).
In the assay on Leishmania panamensis, `COc1ccc(/C=C/C(=O)c2ccc(OCCCCOc3cc(Cl)ccc3Oc3ccc(Cl)cc3Cl)cc2)cc1OC` showed an IC50 of 10.2 µg/mL (≈ 16.2 µM).
On to `O=C(/C=C/c1ccccn1)c1ccc(O)cc1`, for which the EC50 in the assay on Leishmania donovani [4] is 1480 nM.
On the same count and under the same terms, under `O=C(/C=C/c1ccc2ccccc2c1)c1ccc(O)cc1` stands 1380 nM.
As to `COc1ccc(/C=C/C(=O)c2ccccc2)cc1` [4-METHOXY CHALCONE], the 50% inhibitory concentration (IC50) in the assay with Leishmania amazonensis [5] is > 30000 nM.
In the assay on Leishmania panamensis, `COc1ccc(/C=C/C(=O)c2ccc(OCCCOc3cc(Cl)ccc3Oc3ccc(Cl)cc3Cl)cc2)cc1OC` returned a half-maximal inhibitory concentration (IC50) of 9.4 µg/mL (≈ 15.3 µM).
Same read-out and setting: under `O=C(/C=C/c1cccc(Nc2ccnc3cc(Cl)ccc23)c1)c1ccc(Br)cc1` stands 0.88 µg/mL (≈ 1.9 µM).
As to `COc1ccc(C(=O)/C=C/c2cnc3ccccc3c2)c(OC)c1`, the EC50 in the assay on Leishmania donovani [4] worked out at 1500 nM.
Take `C=CCOc1ccc(C(=O)/C=C/c2ccc(OC)c(OC)c2)cc1`: half-maximal inhibition with Leishmania donovani [3] (IC50) was put at 420 nM.
With `COc1ccc(OC)c(C(=O)/C=C/c2ccccn2)c1`, in the assay with Leishmania donovani [6], the half-maximal inhibitory concentration (IC50) came out at 950 nM.
`COc1cc(O)c(C(=O)/C=C/c2ccc(O)cc2)c(O)c1`: the IC50 with Leishmania amazonensis [7] amounted to 61400 nM.
In turn, `O=C(/C=C/c1cccc(Nc2ccnc3cc(Cl)ccc23)c1)c1ccc(Cl)cc1` yielded a concentration for half-maximal inhibition (IC50) in the assay with Leishmania panamensis of 0.79 µg/mL (≈ 1.88 µM).
In the assay on Leishmania donovani [8], `CC(=O)c1sc(N/N=C/c2cccc(/C=C/C(=O)c3ccco3)c2)nc1C` yielded a 50% inhibitory concentration (IC50) of 14000 nM. This counts as double-digit micromolar.
The compound `O=C(/C=C/c1cccc(S(=O)(=O)Nc2ccccc2)c1)c1ccccc1` had an IC50 in the assay on Leishmania amazonensis [5] of 2000 nM.

By IC50 is commonly meant the concentration needed to halve the response being measured. The low end stands for greater potency in that assay, the high end for weaker potency in that assay.

The values above are taken from ChEMBL document CHEMBL4229373, “A comprehensive review of chalcone derivatives as antileishmanial agents” (Eur J Med Chem, 2018).
